How the values were obtained:
CDK1/Cyclin B1 = CDK1/Cyclin B1 (Homo sapiens, UniProt P06493); assay: CDK1/Cyclin B1 Biochemical Assay (TR-FRET), 0.015 mM ATP; conditions: 0.15 μM Rb (Ser780)-biotin substrate, pH7.0, 60 min preincubation, 120 min reaction, room temperature
Method in brief: (§1)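 Inhibitor concentrations up to 10 μM were preincubated with each cyclin–kinase complex for 60 minutes before ATP and biotinylated Rb (Ser780) substrate (0.15 μM) were added. After 120 minutes at room temperature, phosphorylation was quantified by HTRF and IC50 values were fitted with a four-parameter logistic equation.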

CDK2/Cyclin E1 = CDK2/Cyclin E1 (Homo sapiens, UniProt P24941); assay: CDK2/Cyclin E1 Biochemical Assay (TR-FRET), 0.060 mM ATP; conditions: 0.15 μM Rb (Ser780)-biotin substrate, pH7.0, 60 min preincubation, 120 min reaction, room temperature
Method in brief: as §1

Chain of CDK1/Cyclin B1 (P06493 whole entry): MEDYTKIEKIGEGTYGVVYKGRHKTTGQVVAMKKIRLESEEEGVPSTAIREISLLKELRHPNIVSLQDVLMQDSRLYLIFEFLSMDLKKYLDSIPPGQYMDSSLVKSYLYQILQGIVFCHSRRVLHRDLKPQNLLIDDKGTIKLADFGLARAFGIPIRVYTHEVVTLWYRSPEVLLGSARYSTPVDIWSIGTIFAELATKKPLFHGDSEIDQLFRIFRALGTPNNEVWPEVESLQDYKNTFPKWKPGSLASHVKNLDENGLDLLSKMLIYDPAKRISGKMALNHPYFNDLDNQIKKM
Chain of CDK1/Cyclin B1 (P14635 whole entry partner): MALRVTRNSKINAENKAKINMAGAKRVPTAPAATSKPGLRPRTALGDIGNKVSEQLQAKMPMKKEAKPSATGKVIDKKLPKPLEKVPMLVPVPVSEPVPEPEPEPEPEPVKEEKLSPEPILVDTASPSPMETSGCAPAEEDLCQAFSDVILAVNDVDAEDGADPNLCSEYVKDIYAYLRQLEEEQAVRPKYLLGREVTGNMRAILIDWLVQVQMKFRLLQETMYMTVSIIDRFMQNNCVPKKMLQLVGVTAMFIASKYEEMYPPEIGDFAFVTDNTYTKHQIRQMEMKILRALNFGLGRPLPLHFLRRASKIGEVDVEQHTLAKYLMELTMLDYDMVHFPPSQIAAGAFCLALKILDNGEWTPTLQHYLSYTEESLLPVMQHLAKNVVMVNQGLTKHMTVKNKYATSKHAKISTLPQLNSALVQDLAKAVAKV

| Compound | IC50 (CDK1/Cyclin B1) [nM] | IC50 (CDK2/Cyclin E1) [nM] |
| --- | --- | --- |
| O=C(NC1CCCC1)O[C@H]1CC[C@@H](c2cc(Nc3ccc4c(c3)CS(=O)(=O)N4)n[nH]2)C1 (single isomer, unassigned) [Example 381b, cis-3-(3-((2,2-dioxido-1,3-dihydrobenzo[c]isothiazol-5-yl)amino)-1H-pyrazol-5-yl)cyclopentyl cyclopentylcarbamate] | 19 | 0.9 |
| CC[C@H](C)NC(=O)O[C@H]1CC[C@@H](c2cc(Nc3ccc4c(c3F)CS(=O)(=O)N4CC(F)(F)F)n[nH]2)C1 (single isomer, unassigned) [Example 265b] | 26 | 2.4 |
| CN1c2ccc(Nc3cc([C@@H]4CC[C@H](OC(=O)NC5CCC5)C4)[nH]n3)cc2CS1(=O)=O (single isomer, unassigned) [Example 227b, cis-3-(3-((1-methyl-2,2-dioxido-1,3-dihydrobenzo[c]isothiazol-5-yl)amino)-1H-pyrazol-5-yl)cyclopentyl cyclobutylcarbamate] | 45 | 1.3 |
| CC(C)NC(=O)O[C@H]1CC[C@@H](c2cc(Nc3ccc4c(c3F)C(F)(F)S(=O)(=O)N4)n[nH]2)C1 (relative stereo) [Example 356, cis-3-(3-((3,3,4-trifluoro-2,2-dioxido-1,3-dihydrobenzo[c]isothiazol-5-yl)amino)-1H-pyrazol-5-yl)cyclopentyl isopropylcarbamate] | 1580 | 164 |
| CC(C)NC(=O)O[C@H]1CC[C@@H](c2cc(Nc3cc4c(cc3F)S(=O)(=O)N(CCO)C4)n[nH]2)C1 (relative stereo) [Example 47, cis-3-(3-((6-fluoro-2-(2-hydroxyethyl)-1,1-dioxido-2,3-dihydrobenzo[d]isothiazol-5-yl)amino)-1H-pyrazol-5-yl)cyclopentyl isopropylcarbamate] | 7380 | 158 |
| CC(C)NC(=O)O[C@H]1CC[C@@H](c2cc(Nc3ccc4c(c3F)CN(C3CCC(=O)NC3)S4(=O)=O)n[nH]2)C1 (relative stereo) [Example 82, cis-3-(3-((4-fluoro-1,1-dioxido-2-(6-oxopiperidin-3-yl)-2,3-dihydrobenzo[d]isothiazol-5-yl)amino)-1H-pyrazol-5-yl)cyclopentyl isopropylcarbamate] | 381 | 10 |
| COCC(C)NC(=O)O[C@H]1CC[C@@H](c2cc(Nc3ccc4c(c3F)CN(C3CC3)S4(=O)=O)n[nH]2)C1 (relative stereo) [Example 361, cis-3-(3-((2-cyclopropyl-4-fluoro-1,1-dioxido-2,3-dihydrobenzo[d]isothiazol-5-yl)amino)-1H-pyrazol-5-yl)cyclopentyl(1-methoxypropan-2-yl)carbamate] | 349 | 8.4 |
| CC(C)NC(=O)O[C@H]1CC[C@@H](c2cc(Nc3ccc4c(c3F)C(C)(C)NS4(=O)=O)n[nH]2)C1 (relative stereo) [Example 55, cis-3-(3-((4-fluoro-3,3-dimethyl-1,1-dioxido-2,3-dihydrobenzo[d]isothiazol-5-yl)amino)-1H-pyrazol-5-yl)cyclopentyl isopropylcarbamate] | 1890 | 71 |
| CC1(NC(=O)O[C@H]2CC[C@@H](c3cc(Nc4ccc5c(c4F)CNS5(=O)=O)n[nH]3)C2)CCOC1 (mixture of isomers) [Example 162, cis-3-(3-((4-fluoro-1,1-dioxido-2,3-dihydrobenzo[d]isothiazol-5-yl)amino)-1H-pyrazol-5-yl)cyclopentyl(3-methyltetrahydrofuran-3-yl)carbamate] | 163 | 2.4 |
| CC(C)NC(=O)O[C@H]1CC[C@@H](c2cc(Nc3ccc4c(c3)CC(=O)NS4(=O)=O)n[nH]2)C1 (relative stereo) [Example 171, cis-3-(3-((1,1-dioxido-3-oxo-3,4-dihydro-2H-benzo[e][1,2]thiazin-6-yl)amino)-1H-pyrazol-5-yl)cyclopentyl isopropylcarbamate] | 183 | 10 |

Reference: patent publication US20260297080A1, “BICYCLIC COMPOUNDS AS CDK INHIBITORS” (BeOne Medicines I GmbH, priority 2022, published 2026)
